Test results reported in patent publication US12558386B2, “Methods and compositions to modulate antibiotic resistance and gastrointestinal microbiota” (OHIO STATE INNOVATION FOUNDATION, priority 2018, dated 2026).
Values after ≈ are worked out from the molar mass of the structure shown.

Legend:
Three Amp^r E. coli = assay: MIC assessment, summary for the three strains; assay type: cell-based, Escherichia coli; conditions: E. coli CA-1, CA-4 and CA-20 together
Procedure: Bacterial strains. Multiple Amp^r strains from feces of broiler chickens without antibiotic treatment were recovered on Columbia blood Agar base (Becton, […] Dickinson and Company, Franklin Lakes, NJ) supplemented with 5% defibrinated sheep blood (Thermo Scientific™, Grand Island, NY). The strains were maintained in Columbia broth (Becton Dickinson and Company, Franklin Lakes, NJ), and propagated by aerobic growth at 37° C., and further subjected to strain identification and Minimum Inhibition Concentration (MIC) assessments.
(§1) Minimum inhibition concertation (MIC) assessment. A TREK Sensititre diagnostic system (Thermo scientific, Oakwood Village, OH, USA) was used to assess the AR phenotype and MIC of isolated strains. Protocols to use this system can be found on www.trekds.com. Cation-adjusted Mueller Hinton Broth (Becton, Dickinson and Company, MD, USA) was used as basic medium.

blaCMY-2 gene pool = assay: Chicken model, qPCR of fecal DNA; assay type: in vivo, Leghorn chicken; conditions: Lc = Lc-Amp group, Amp = Saline-Amp group
Excerpt: (§2) The chicken model. All procedures were approved by the Institutional Animal Care and Use Committee (protocol No. 2012A00000061, The Ohio State University, Columbus, OH). Leghorn chicken were hatched and maintained at the Ohio Agricultural Research and Development Center (OARDC) poultry research teaching farm (two birds per cage with separate feed and water supply, controlled temperature, filtered air in the room and sterilized feed). Chicken fecal samples were collected on-site and examined for the presence of blaCMY-2 gene pools and microbial profile. Beginning on Day 5 post-hatch, chicken were inoculated with a blaCMY-2^+ E. coli cocktail (0.2 mL/bird, 10^6 CFU/mL) every 24 hours for 4 consecutive days via gavage feeding using 20 ga×1.5 inch animal feeding needle (Fine Science Tools, Foster City, CA, USA). Chickens in non-inoculated control groups were fed with 0.2 mL of saline by the same method. Chickens were then set in cages for 11 days before antibiotic treatment, allowing the microbiota to stabilize.
(§3) Lactobacillus crispatus and antibiotic administration. Lactobacillus crispatus CG-12 was susceptible to ampicillin. To monitor the impact of CG-12 on AR profiles during common ampicillin administration practice, low veterinary Amp dosages (30 mg/kg body weight per day) were selected instead of 300 mg/kg/day. Lactobacillus crispatus CG-12 was administrated in three periods: 1) Day 2 to Day 4 post-hatch; 2) throughout the stabilization; and 3) post-antibiotic challenge on Day 25 to Day 28. During these periods, chickens were inoculated with a Lactobacillus crispatus CG-12 suspension (0.2 mL/bird, 10^6 CFU/mL) every 24 hours for 4 consecutive days via gavage feeding using 20 ga×1.5 inch animal feeding needle (Fine Science Tools, Foster City, CA, USA). Each group contained at least 6 chickens.
(§4) Sample collection. Fresh feces were collected from each chicken on-site in the rearing facility. Fecal samples were collected at the 1st and last day of Lactobacillus inoculation, once a day during the antibiotic administration period, and once every three days during antibiotic withdrawal period up to 14 days from initial antibiotic exposure.
(§5) DNA extraction. Total DNA from chicken fecal samples for real-time quantitative PCR (qPCR) and denaturing gradient gel electrophoresis (DGGE) analyses were extracted according to a published method (Yu and Morrison 2004).
(§6) Real-time quantitative PCR. TaqMan real-time PCR protocol was used to assess blaCMY-2 and 16S rRNA gene pools in total DNA extracted from chicken fecal samples, as described previously (Zhang et al., 2013). […] Each sample was assessed and analyzed in duplicates on a CFX96 system (Bio-Rad, Hercules, CA, USA).

16S rRNA gene pool = assay: Chicken model, qPCR of fecal DNA; assay type: in vivo, Leghorn chicken; conditions: Lc = Lc-Amp group, Amp = Saline-Amp group
Excerpt: as §2, §3, §4, §5, §6

[1] = tested on: Lactobacillus crispatus CG-12; assay: MIC assessment (TREK Sensititre); assay type: cell-based; conditions: Lactobacillus crispatus, CG12; L. crispatus CG-12; read-out: MIC
Procedure: Multiple commensal bacterial strains from chicken feces were recovered from Columbia blood Agar base (Becton, […] Dickinson and Company, Franklin Lakes, NJ) supplemented with 5% defibrinated sheep blood (Thermo Scientific™, Grand Island, NY), and maintained in Columbia broth (Becton Dickinson and Company, Franklin Lakes, NJ) and propagated by anaerobic growth at 37° C. The strains were subjected to antibiotic susceptibility assessment followed by strain identification.
as §1

[2] = tested on: Amp^r (ESBL) Escherichia coli strains M9-1, M9-4, M9-12 and 933-36; assay: MIC of the Amp^r marker strains (previously identified); assay type: cell-based; conditions: antibiotic not given
[3] = Day 21, during oral Amp 30 mg/kg/day

SMILES: CC1(C)S[C@@H]2[C@H](NC(=O)[C@H](N)c3ccccc3)C(=O)N2[C@H]1C(=O)O [AMP, ampicillin]
- resistance phenotype from MIC, in words (Three Amp^r E. coli): high resistance
- blaCMY-2 gene pool (blaCMY-2 gene pool; [3]): 8.7±0.8 log10 (gene copies/g)
- blaCMY-2 gene pool (blaCMY-2 gene pool; Day 25, after Amp treatment): 9.8±0.9 log10 (gene copies/g)
- 16S rRNA gene pool (16S rRNA gene pool; [3]): 8.5±0.7 log10 (gene copies/g)
- 16S rRNA gene pool (16S rRNA gene pool; Day 25, after Amp treatment): 10.5±1.0 log10 (gene copies/g)
- MIC [1]: 0.5 µg/mL (≈ 1.43 µM)
- MIC [2]: > 256 µg/mL
